Source: PubChem BioAssay AID1259407 (Chemical Carcinogenesis Research Information System (CCRIS), 2018)
Active and inactive are the calls of the source. How the calls were made is not given here.

Tested on: CCRIS mutagenicity, Ames/micronucleus/aberration tests
Assay: CCRIS mutagenicity studies
[1] = Test System: AMES SALMONELLA TYPHIMURIUM, Strain/Indicator: TA98, Metabolic Activation: NONE, Method: PREINCUBATION
[2] = Test System: AMES SALMONELLA TYPHIMURIUM, Strain/Indicator: TA100, Metabolic Activation: NONE, Method: PREINCUBATION
[3] = Test System: AMES SALMONELLA TYPHIMURIUM, Strain/Indicator: TA1535, Metabolic Activation: NONE, Method: PREINCUBATION
[4] = Test System: AMES SALMONELLA TYPHIMURIUM, Strain/Indicator: TA1537, Metabolic Activation: NONE, Method: PREINCUBATION

c1ccc2c(c1)-c1cccc3c1c-2cc1ccccc13
mutagenic call (Test System: AMES SALMONELLA TYPHIMURIUM, Strain/Indicator: TA98, Metabolic Activation: HAMSTER, LIVER, S-9, AROCLOR 1254 (10%), Method: PREINCUBATION): active; positive | mutagenic call (Test System: AMES SALMONELLA TYPHIMURIUM, Strain/Indicator: TA98, Metabolic Activation: MOUSE, LIVER, S-9, AROCLOR 1254, Method: STANDARD PLATE): active; positive | mutagenic call [1]: inactive; negative | mutagenic call (Test System: AMES SALMONELLA TYPHIMURIUM, Strain/Indicator: TA98, Metabolic Activation: RAT, LIVER, S-9, AROCLOR 1254 (10%), Method: PREINCUBATION): inactive; negative | mutagenic call (Test System: AMES SALMONELLA TYPHIMURIUM, Strain/Indicator: TA100, Metabolic Activation: HAMSTER, LIVER, S-9, AROCLOR 1254 (10%), Method: PREINCUBATION): active; positive | mutagenic call [2]: inactive; negative | mutagenic call (Test System: AMES SALMONELLA TYPHIMURIUM, Strain/Indicator: TA100, Metabolic Activation: RAT, LIVER, S-9, AROCLOR 1254): active; positive | mutagenic call (Test System: AMES SALMONELLA TYPHIMURIUM, Strain/Indicator: TA100, Metabolic Activation: RAT, LIVER, S-9, AROCLOR 1254 (10%), Method: PREINCUBATION): active; positive | mutagenic call (Test System: AMES SALMONELLA TYPHIMURIUM, Strain/Indicator: TA100, Metabolic Activation: RAT, LIVER, S-9, AROCLOR 1254, Method: STANDARD PLATE): active; positive

CO[C@H](C)[C@](O)(C(=O)OCC1=CCN2CC[C@H](O)[C@@H]12)C(C)C
mutagenic call (Test System: AMES SALMONELLA TYPHIMURIUM, Strain/Indicator: TA100, Metabolic Activation: HAMSTER, LIVER, S-9, PCB, Method: PREINCUBATION): inactive; negative; dose related trend; by authors criteria results are positive | mutagenic call (Test System: AMES SALMONELLA TYPHIMURIUM, Strain/Indicator: TA100, Metabolic Activation: RAT, LIVER, S-9, PCB, Method: PREINCUBATION): inactive; negative; dose related trend; by authors criteria results are positive

O=Cc1ccc(O)cc1
mutagenic call [1]: inactive; negative | mutagenic call (Test System: AMES SALMONELLA TYPHIMURIUM, Strain/Indicator: TA98, Metabolic Activation: RAT LIVER S-9, PHENOBARBITAL AND BETA-NAPHTHOFLAVONE, Method: PREINCUBATION): inactive; negative | mutagenic call [2]: inactive; negative | mutagenic call (Test System: AMES SALMONELLA TYPHIMURIUM, Strain/Indicator: TA100, Metabolic Activation: RAT LIVER S-9, PHENOBARBITAL AND BETA-NAPHTHOFLAVONE, Method: PREINCUBATION): inactive; negative | mutagenic call [3]: inactive; negative | mutagenic call (Test System: AMES SALMONELLA TYPHIMURIUM, Strain/Indicator: TA1535, Metabolic Activation: RAT LIVER S-9, PHENOBARBITAL AND BETA-NAPHTHOFLAVONE, Method: PREINCUBATION): inactive; negative | mutagenic call [4]: inactive; negative | mutagenic call (Test System: AMES SALMONELLA TYPHIMURIUM, Strain/Indicator: TA1537, Metabolic Activation: RAT LIVER S-9, PHENOBARBITAL AND BETA-NAPHTHOFLAVONE, Method: PREINCUBATION): inactive; negative | mutagenic call (Test System: AMES SALMONELLA TYPHIMURIUM, Strain/Indicator: TA1538, Metabolic Activation: NONE, Method: PREINCUBATION): inactive; negative | mutagenic call (Test System: AMES SALMONELLA TYPHIMURIUM, Strain/Indicator: TA1538, Metabolic Activation: RAT LIVER S-9, PHENOBARBITAL AND BETA-NAPHTHOFLAVONE, Method: PREINCUBATION): inactive; negative | mutagenic call (Test System: E.COLI, Strain/Indicator: WP2UVRA, Metabolic Activation: NONE, Method: PREINCUBATION): inactive; negative | mutagenic call (Test System: E.COLI, Strain/Indicator: WP2UVRA, Metabolic Activation: RAT LIVER S-9, PHENOBARBITAL AND BETA-NAPHTHOFLAVONE, Method: PREINCUBATION): inactive; negative

CCC/C=C/C(=O)O[C@@H]1C(C)(C)C[C@@H]2C34CC3(C(C=O)=C[C@]12O)[C@@H](O)OC4=O (stereo partly drawn)
mutagenic call (Test System: AMES SALMONELLA TYPHIMURIUM, Strain/Indicator: TA98, Metabolic Activation: NONE, Method: SPOT TEST): active; positive | mutagenic call (Test System: AMES SALMONELLA TYPHIMURIUM, Strain/Indicator: TA98, Metabolic Activation: NONE, Method: STANDARD PLATE): active; positive | mutagenic call (Test System: AMES SALMONELLA TYPHIMURIUM, Strain/Indicator: TA100, Metabolic Activation: NONE, Method: SPOT TEST): inactive; negative | mutagenic call (Test System: AMES SALMONELLA TYPHIMURIUM, Strain/Indicator: TA100, Metabolic Activation: NONE, Method: STANDARD PLATE): active; positive | mutagenic call (Test System: AMES SALMONELLA TYPHIMURIUM, Strain/Indicator: TA1535, Metabolic Activation: NONE, Method: SPOT TEST): inactive; negative | mutagenic call (Test System: AMES SALMONELLA TYPHIMURIUM, Strain/Indicator: TA1538, Metabolic Activation: NONE, Method: SPOT TEST): inactive; negative | mutagenic call (Test System: AMES SALMONELLA TYPHIMURIUM, Strain/Indicator: TA2637, Metabolic Activation: NONE, Method: STANDARD PLATE): active; positive

CCCCCCCCCCO
mutagenic call [1]: inactive; negative | mutagenic call (Test System: AMES SALMONELLA TYPHIMURIUM, Strain/Indicator: TA98, Metabolic Activation: RAT, LIVER, S-9, PHENOBARBITAL AND BETA-NAPHTHOFLAVONE, Method: PREINCUBATION): inactive; negative | mutagenic call [2]: inactive; negative | mutagenic call (Test System: AMES SALMONELLA TYPHIMURIUM, Strain/Indicator: TA100, Metabolic Activation: RAT, LIVER, S-9, PHENOBARBITAL AND BETA-NAPHTHOFLAVONE, Method: PREINCUBATION): inactive; negative | mutagenic call (Test System: AMES SALMONELLA TYPHIMURIUM, Strain/Indicator: TA102, Metabolic Activation: NONE, Method: PREINCUBATION): inactive; negative | mutagenic call (Test System: AMES SALMONELLA TYPHIMURIUM, Strain/Indicator: TA102, Metabolic Activation: RAT, LIVER, S-9, SODIUM PHENOBARBITAL AND 5,6-BENZOFLAVONE, Method: PREINCUBATION): inactive; negative | mutagenic call (Test System: AMES SALMONELLA TYPHIMURIUM, Strain/Indicator: TA104, Metabolic Activation: NONE, Method: PREINCUBATION): inactive; negative | mutagenic call (Test System: AMES SALMONELLA TYPHIMURIUM, Strain/Indicator: TA104, Metabolic Activation: RAT, LIVER, S-9, SODIUM PHENOBARBITAL AND 5,6-BENZOFLAVONE, Method: PREINCUBATION): inactive; negative | mutagenic call [3]: inactive; negative | mutagenic call (Test System: AMES SALMONELLA TYPHIMURIUM, Strain/Indicator: TA1535, Metabolic Activation: RAT, LIVER, S-9, PHENOBARBITAL AND BETA-NAPHTHOFLAVONE, Method: PREINCUBATION): inactive; negative | mutagenic call [4]: inactive; negative | mutagenic call (Test System: AMES SALMONELLA TYPHIMURIUM, Strain/Indicator: TA1537, Metabolic Activation: RAT, LIVER, S-9, PHENOBARBITAL AND BETA-NAPHTHOFLAVONE, Method: PREINCUBATION): inactive; negative | mutagenic call (Test System: CHINESE HAMSTER V-79, Strain/Indicator: V-79 (HPRT)/6-THIOGUANINE, Metabolic Activation: NONE, Method: STANDARD PLATE): inactive; negative | mutagenic call (Test System: CHINESE HAMSTER V-79, Strain/Indicator: V-79 (HPRT)/6-THIOGUANINE, Metabolic Activation: RAT LIVER S-9, Method: STANDARD PLATE): inactive; negative | mutagenic call (Test System: E. COLI, Strain/Indicator: WP2UVRA/PKM101, Metabolic Activation: NONE, Method: PREINCUBATION): inactive; negative | mutagenic call (Test System: E. COLI, Strain/Indicator: WP2UVRA/PKM101, Metabolic Activation: RAT, LIVER, S-9, PHENOBARBITAL AND BETA-NAPHTHOFLAVONE, Method: PREINCUBATION): inactive; negative | mutagenic call (Test System: E. COLI, Strain/Indicator: WP2UVRA, Metabolic Activation: NONE, Method: PREINCUBATION): inactive; negative | mutagenic call (Test System: E. COLI, Strain/Indicator: WP2UVRA, Metabolic Activation: RAT, LIVER, S-9, PHENOBARBITAL AND BETA-NAPHTHOFLAVONE, Method: PREINCUBATION): inactive; negative
